Among the data in PubChem BioAssay (NCI) are TGI values, retold here.

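Method: 48-hour compound exposure of cells in 96-well plates, five concentrations, linear interpolation of endpoints. TGI: total growth inhibition.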

Some test systems named below: MDA-MB-231 breast; SR leukemia; DMS 273 small cell lung; M19-MEL melanoma; DLD-1 colon; SNB-78 CNS; DMS 114 small cell lung; KM20L2 colon; HOP-18 NSCLC; XF 498 CNS; RXF-631 renal.
What all share (assay): inhibition of tumour cell growth, NCI panel, 48 h

With `CCOC(=O)c1cnc(N(C)C)nc1SC(=N)N`, the TGI in the experiment on MDA-MB-231 breast and with SR leukemia was > 100 µM throughout.
Regarding `C[n+]1cccc(NC(=O)c2ccc(NC(=O)C34CCC(C(=O)Nc5ccc(C(=O)Nc6ccc[n+](C)c6)cc5)(CC3)CC4)cc2)c1`, the TGI with DMS 273 small cell lung was 25.9 µM; with M19-MEL melanoma it was > 100 µM; in the experiment with DLD-1 colon, > 100 µM; with SR leukemia, > 100 µM; in the experiment with SNB-78 CNS, > 100 µM; in the experiment on DMS 114 small cell lung it was > 100 µM. In addition, the TGI in the experiment with KM20L2 colon and with HOP-18 NSCLC was > 100 µM in each case.
Turning to `O=C(COc1ccc(Cl)c(Cl)c1)Nc1ccc[n+](Cc2ccc(S(=O)(=O)F)c(Cl)c2)c1`, the TGI in the experiment with MDA-MB-231 breast and with SR leukemia was > 100 µM throughout.
Turning to `Cc1ccc(O)c(Cc2nc3ccccc3nc2-c2cccc(Cl)c2)c1`, the TGI with MDA-MB-231 breast and in the experiment on SR leukemia was > 100 µM throughout.
As for `CCCCN1C(=O)C2Cc3c([nH]c4ccccc34)C(c3cccc(O)c3)N2C1=O` (centres undefined), the TGI is 31.2 µM in the experiment with MDA-MB-231 breast and 45.6 µM in the experiment with SR leukemia.
Consider `O=C(CSCC(=O)N/N=C/c1ccc2c(c1)OCO2)N/N=C/c1ccc2c(c1)OCO2`, for which, in the experiment with MDA-MB-231 breast, the TGI is > 100 µM.
For `C[C@H]1C[C@@H]2[C@H]([C@@H](O)C[C@@]3(C)[C@H]2CC[C@]3(O)C(=O)CO)[C@@]2(C)C=CC(=O)C=C12`, the TGI in the experiment on DMS 273 small cell lung, with M19-MEL melanoma, in the experiment on DLD-1 colon, in the experiment on SR leukemia, with DMS 114 small cell lung and in the experiment with KM20L2 colon was > 100 µM in each case. Besides, in the experiment on HOP-18 NSCLC, the TGI is > 100 µM.
In the case of `c1ccc2c(CSCc3cccc4ccccc34)cccc2c1`, the TGI with MDA-MB-231 breast and with SR leukemia was > 100 µM each time.
For the compound `CCCCc1ccc(N=C(N)N)cc1`, in the experiment on MDA-MB-231 breast, the TGI is > 100 µM.
On to `COc1cc2c(c(OC)c1OC)-c1ccc(OC)c(=O)cc1C(NC(=O)COc1ccccc1)CC2` (centres undefined), for which the TGI with DMS 273 small cell lung is > 100 µM; in the experiment with MDA-MB-231 breast, 1.22 µM; in the experiment with M19-MEL melanoma, > 100 µM; in the experiment with DLD-1 colon it was > 100 µM; in the experiment with XF 498 CNS, 65.8 µM; with SR leukemia, 8.93 µM. Also, the TGI is > 100 µM in the experiment with SNB-78 CNS; < 0.01 µM in the experiment on DMS 114 small cell lung; < 0.01 µM in the experiment on KM20L2 colon; > 100 µM in the experiment on HOP-18 NSCLC; > 100 µM with RXF-631 renal.
Consider `C[C@@H]1C[C@H]2[C@@H]3CCC4=CC(=O)C=C[C@]4(C)[C@@]3(F)[C@@H](O)C[C@]2(C)[C@@]1(O)C(=O)CO`, for which the TGI with M19-MEL melanoma, with DLD-1 colon, in the experiment with SR leukemia, with DMS 114 small cell lung and in the experiment on KM20L2 colon was > 100 µM throughout.
With `CC(C)(C)[Si](OC1CCOC1=O)(c1ccccc1)c1ccccc1` (centres undefined), the TGI in the experiment on M19-MEL melanoma was 39.1 µM; in the experiment on DLD-1 colon, > 100 µM; with XF 498 CNS it was 24.2 µM; in the experiment on SR leukemia, > 10 µM; in the experiment on SNB-78 CNS, > 100 µM; with KM20L2 colon it was 35.6 µM. The TGI came to 80.9 µM in the experiment on HOP-18 NSCLC and 98.8 µM with RXF-631 renal.
For `CC(=O)Nc1ccc2c(c1)/C(=C\c1ccc([N+](C)(C)C)cc1)c1ccccc1-2`, in the experiment with MDA-MB-231 breast, the TGI was > 100 µM.
In turn, `O=C(C=P(c1ccccc1)(c1ccccc1)c1ccccc1)c1ccc(-c2cccs2)cc1` yielded a TGI in the experiment with MDA-MB-231 breast of 25.5 µM.
Take `COc1cc(C(=O)NC2CCc3cc(OC)c(OC)c(OC)c3-c3ccc(OC)c(=O)cc32)cc(OC)c1OC` (centres undefined): the TGI in the experiment with DMS 273 small cell lung is > 100 µM; in the experiment with MDA-MB-231 breast it was > 100 µM; with M19-MEL melanoma, > 100 µM; in the experiment with DLD-1 colon, > 100 µM; in the experiment with XF 498 CNS it was 16 µM; in the experiment on SR leukemia it was > 100 µM. Further, the TGI in the experiment with SNB-78 CNS was > 100 µM; with DMS 114 small cell lung, 0.1 µM; in the experiment with KM20L2 colon, 0.326 µM; with HOP-18 NSCLC it was > 100 µM.
Regarding `CC(=O)Oc1ccccc1`, the TGI in the experiment with DMS 273 small cell lung, with M19-MEL melanoma, with DLD-1 colon, in the experiment with DMS 114 small cell lung, in the experiment on KM20L2 colon and with RXF-631 renal was > 100 µM each time.
